Patent US10392368B2, “Pyrazolo and triazolo bicyclic compounds as JAK kinase inhibitors” (THERAVANCE BIOPHARMA R&D IP, LLC, priority 2017, dated 2019)

Assays:
[1] = test system: IL-2 stimulated pSTAT5 in Tall-1 T cells; assay: Cellular JAK3 potency assay: inhibition of IL-2 stimulated pSTAT5 in Tall-1 T cells; assay type: cell-based, human; settings: for IC50: Homo sapiens, TALL-1, IL-2 stimulated pSTAT5 in Tall-1 T cells, read-out: Tall-1 (pIC50) (converted)
Procedure: The potency of test compounds for inhibition of interleukin-2 (IL-2) stimulated STAT5 phosphorylation was measured in the Tall-1 human T cell line (DSMZ) using AlphaLisa. Because IL-2 signals through JAK3, this assay provides a measure of JAK3 cellular potency.
Compounds were serially diluted in DMSO and dispensed acoustically to empty wells. Assay media (phenol red-free DMEM (Life Technologies) supplemented with 10% FBS (ATCC)) was dispensed (4 μL/well) and plates shaken at 900 rpm for 10 mins. Cells were seeded at 45,000 cells/well in assay media (4 μL/well), and incubated at 37° C., 5% CO2 for 1 hour, followed by the addition of IL-2 (R&D Systems; final concentration 300 ng/ml) in pre-warmed assay media (4 μL) for 30 minutes. After cytokine stimulation, cells were lysed with 6 ul of 3× AlphaLisa Lysis Buffer (PerkinElmer) containing 1× PhosStop and Complete tablets (Roche). The lysate was shaken at 900 rpm for 10 minutes at room temperature (RT). Phosphorylated STAT5 was measured via the pSTAT5 AlphaLisa kit (PerkinElmer). Freshly prepared acceptor bead mixture was dispensed onto lysate (5 μL) under green filtered <100 lux light. Plates were shaken at 900 rpm for 2 mins, briefly spun down, and incubated for 2 hrs at RT in the dark. Donor beads were dispensed (5 μL) under green filtered <100 lux light. Plates were shaken at 900 rpm for 2 minutes, briefly spun down, and incubated overnight at RT in the dark.
To determine the inhibitory potency of test compounds in response to IL-2, the average emission intensity of beads bound to pSTAT5 was measured in a human T cell line. IC50 values were determined from analysis of the inhibition curves of signal intensity versus compound concentration. Data are expressed as pIC50 (negative decadic logarithm IC50) values (mean±standard deviation).

[2] = biological target: T1, JAK3 (Homo sapiens, UniProt P52333); assay: Biochemical JAK3 kinase assay (LanthaScreen); design: GST; purchased Life Technologies; settings: for Ki: read-out: JAK 3 (pKi) (converted); for JAK3 (pKi)-JAK1 (pKi): selectivity: difference of pKi JAK3 and pKi JAK1
T1 sequence (P52333 1-1124): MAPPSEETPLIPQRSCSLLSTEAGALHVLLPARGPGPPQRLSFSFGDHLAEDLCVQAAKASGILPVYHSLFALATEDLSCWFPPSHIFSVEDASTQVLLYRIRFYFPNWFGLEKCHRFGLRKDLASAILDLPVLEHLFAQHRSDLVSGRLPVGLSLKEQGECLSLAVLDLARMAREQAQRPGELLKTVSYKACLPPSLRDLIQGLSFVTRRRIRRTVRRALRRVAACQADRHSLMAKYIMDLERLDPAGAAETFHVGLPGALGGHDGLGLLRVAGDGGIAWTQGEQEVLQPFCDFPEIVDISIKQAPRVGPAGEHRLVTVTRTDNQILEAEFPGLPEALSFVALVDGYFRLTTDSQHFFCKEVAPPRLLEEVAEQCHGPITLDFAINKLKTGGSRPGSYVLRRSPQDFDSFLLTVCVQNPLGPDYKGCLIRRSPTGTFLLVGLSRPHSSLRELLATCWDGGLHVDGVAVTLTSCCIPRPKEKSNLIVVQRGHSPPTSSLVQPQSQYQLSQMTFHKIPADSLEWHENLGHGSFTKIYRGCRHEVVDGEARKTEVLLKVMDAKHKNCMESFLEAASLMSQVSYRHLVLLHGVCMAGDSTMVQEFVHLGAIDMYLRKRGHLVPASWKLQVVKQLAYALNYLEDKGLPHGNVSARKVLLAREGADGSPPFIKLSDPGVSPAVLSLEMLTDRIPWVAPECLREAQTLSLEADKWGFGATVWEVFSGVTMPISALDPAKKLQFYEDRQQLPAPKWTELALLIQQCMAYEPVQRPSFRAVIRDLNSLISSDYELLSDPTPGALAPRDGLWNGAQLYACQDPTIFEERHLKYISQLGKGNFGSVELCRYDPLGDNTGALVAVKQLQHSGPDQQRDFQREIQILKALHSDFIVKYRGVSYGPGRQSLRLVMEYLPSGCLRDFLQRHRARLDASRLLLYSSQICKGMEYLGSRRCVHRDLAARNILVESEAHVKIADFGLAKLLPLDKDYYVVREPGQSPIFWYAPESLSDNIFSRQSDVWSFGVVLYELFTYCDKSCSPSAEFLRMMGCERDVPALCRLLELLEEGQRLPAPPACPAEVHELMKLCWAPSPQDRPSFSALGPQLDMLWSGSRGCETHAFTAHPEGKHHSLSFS
Procedure: (§1) A panel of four LanthaScreen JAK biochemical assays (JAK1, 2, 3 and Tyk2) were carried in a common kinase reaction buffer (50 mM HEPES, pH 7.5, 0.01% Brij-35, 10 mM MgCl2, and 1 mM EGTA). Recombinant GST-tagged JAK enzymes and a GFP-tagged STAT1 peptide substrate were obtained from Life Technologies.
(§2) Serially or discretely diluted compounds were pre-incubated with each of the four JAK enzymes and the substrate in white 384-well microplates (Corning) at ambient temperature for 1 h. ATP was subsequently added to initiate the kinase reactions in 10 μL total volume, with 1% DMSO. […] Kinase reactions were allowed to proceed for 1 hour at ambient temperature before a 10 μL preparation of EDTA (10 mM final concentration) and Tb-anti-pSTAT1 (pTyr701) antibody (Life Technologies, 2 nM final concentration) in TR-FRET dilution buffer (Life Technologies) was added. The plates were allowed to incubate at ambient temperature for 1 h before being read on the EnVision reader (Perkin Elmer). Emission ratio signals (520 nm/495 nm) were recorded and utilized to calculate the percent inhibition values based on DMSO and background controls.
(§3) For dose-response analysis, percent inhibition data were plotted vs. compound concentrations, and IC50 values were determined from a 4-parameter robust fit model with the Prism software (GraphPad Software). Results were expressed as pIC50 (negative logarithm of IC50) and subsequently converted to pKi (negative logarithm of dissociation constant, Ki) using the Cheng-Prusoff equation.

[3] = biological target: T2, JAK1 (Homo sapiens, UniProt P23458); assay: Biochemical JAK1 kinase assay (LanthaScreen); settings: for Ki: read-out: JAK 1 (pKi) (converted)
T2 construct: GST; purchased Life Technologies
Procedure: as §1, §2, §3

T2 sequence (P23458 whole entry): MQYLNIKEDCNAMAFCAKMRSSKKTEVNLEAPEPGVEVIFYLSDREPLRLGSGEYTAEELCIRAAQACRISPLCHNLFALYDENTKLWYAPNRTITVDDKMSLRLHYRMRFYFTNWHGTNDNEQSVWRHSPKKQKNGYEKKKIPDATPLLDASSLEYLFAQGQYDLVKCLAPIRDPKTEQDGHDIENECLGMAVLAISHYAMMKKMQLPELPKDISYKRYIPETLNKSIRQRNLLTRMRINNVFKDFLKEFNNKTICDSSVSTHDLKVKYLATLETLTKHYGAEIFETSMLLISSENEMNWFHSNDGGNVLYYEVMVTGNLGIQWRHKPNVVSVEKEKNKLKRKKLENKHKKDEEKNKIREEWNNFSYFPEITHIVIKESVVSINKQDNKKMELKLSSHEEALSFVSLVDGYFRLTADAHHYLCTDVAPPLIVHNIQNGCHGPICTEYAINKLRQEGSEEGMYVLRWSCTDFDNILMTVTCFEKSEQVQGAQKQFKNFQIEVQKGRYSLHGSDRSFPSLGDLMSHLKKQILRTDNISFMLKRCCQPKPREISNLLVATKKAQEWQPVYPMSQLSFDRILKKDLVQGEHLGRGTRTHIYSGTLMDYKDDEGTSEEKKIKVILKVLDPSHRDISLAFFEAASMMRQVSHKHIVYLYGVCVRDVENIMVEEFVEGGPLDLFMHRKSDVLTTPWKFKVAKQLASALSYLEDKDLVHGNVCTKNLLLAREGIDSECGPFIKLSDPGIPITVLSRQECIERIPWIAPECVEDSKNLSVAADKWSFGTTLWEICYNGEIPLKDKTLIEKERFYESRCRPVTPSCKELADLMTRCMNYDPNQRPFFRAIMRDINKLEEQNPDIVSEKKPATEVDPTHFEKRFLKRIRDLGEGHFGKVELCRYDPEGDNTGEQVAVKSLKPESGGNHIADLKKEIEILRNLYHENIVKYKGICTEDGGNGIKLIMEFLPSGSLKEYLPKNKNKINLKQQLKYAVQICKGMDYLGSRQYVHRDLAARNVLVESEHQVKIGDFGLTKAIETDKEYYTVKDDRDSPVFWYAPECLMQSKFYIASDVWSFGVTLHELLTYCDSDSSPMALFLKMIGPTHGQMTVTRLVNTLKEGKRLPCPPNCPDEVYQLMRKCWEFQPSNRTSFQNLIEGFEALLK

Compound | IC50 [1] | Ki [2] | JAK3 (pKi)-JAK1 (pKi) [2] | Ki [3] | Tall-1 (pIC50) ([1]; IL-2 stimulated pSTAT5 in Tall-1 T cells) | JAK 3 (pKi) [2] | JAK 1 (pKi) [3]
CN(C)C/C=C/C(=O)N1CC[C@H](Oc2cc(-c3ccc(O)c(Cl)c3)cc3[nH]ncc23)C1 [Compound 1-3] | 31.6 to 200 nM | 0.1 to 1 nM | A (a value of 3 or above) | > 100 nM |  |  | 
CN(C)C/C=C/C(=O)N1CC[C@H](Oc2cc(-c3ccc(O)c(F)c3)cc3[nH]ncc23)C1 [Compound 1-4] | 200 to 1000 nM | 0.1 to 1 nM | A (a value of 3 or above) | > 100 nM |  |  | 
C=CC(=O)N1CC[C@H](Oc2nc(-c3ccc(O)cc3)nc3[nH]ncc23)C1 [Compound 1-6] | 200 to 1000 nM | 0.1 to 1 nM | A (a value of 3 or above) | > 100 nM |  |  | 
CN(C)C/C=C/C(=O)N1CC[C@H](Oc2nc(-c3ccc(O)cc3)cc3[nH]ncc23)C1 [Compound 1-7] | 200 to 1000 nM | 0.1 to 1 nM | B (a value of 2.3 to 3) | > 100 nM |  |  | 
C=CC(=O)N1CC[C@H](Oc2cc(-c3ccc(O)cc3)nc3[nH]ncc23)C1 [Compound 1-9] |  |  | A (a value of 3 or above) |  | C (a pIC50 value between 6 and 6.7 (IC50 between 1 μM and 200 nM)) | A (a pKi value≥10 (Ki≤0.1 nM)) | E (a pKi value of 7 or below (Ki of 100 nM or above))
C[C@@H]1C[C@H](Oc2cc(-c3ccc(O)cc3)cc3[nH]ncc23)CN1C(=O)/C=C/CN(C)C [Compound 1-10] | 200 to 1000 nM | 0.1 to 1 nM | A (a value of 3 or above) | > 100 nM |  |  | 
C=CC(=O)N1C[C@@H](Oc2cc(-c3ccc(O)cc3)cc3[nH]ncc23)C[C@@H]1C [Compound 1-12] | 31.6 to 200 nM | 0.1 to 1 nM | A (a value of 3 or above) | > 100 nM |  |  | 
C=CC(=O)N1CC[C@H](Oc2cc(-c3ccc(O)c(F)c3F)cc3[nH]ncc23)C1 [Compound 1-13] | 31.6 to 200 nM | 0.1 to 1 nM | B (a value of 2.3 to 3) | > 100 nM |  |  | 
C=CC(=O)N1CC[C@H](Oc2cc(-c3cc(F)c(O)c(F)c3)cc3[nH]ncc23)C1 [Compound 1-14] | 31.6 to 200 nM | < 0.1 nM | A (a value of 3 or above) | > 100 nM |  |  | 
C=CC(=O)N1CC[C@H](Oc2cc(-c3ccc(O)c(F)c3)cc3[nH]nc(C)c23)C1 [Compound 1-23] | < 31.6 nM | 0.1 to 1 nM | B (a value of 2.3 to 3) | 10 to 100 nM |  |  | 
C=CC(=O)N1CC[C@H](Oc2nc(-c3ccc(O)cc3)nc3[nH]nc(C(F)F)c23)C1 [Compound 1-25] | 31.6 to 200 nM | 0.1 to 1 nM | A (a value of 3 or above) | > 100 nM |  |  | 
